Experiments:
α2A [1] = target: T1, α2A (Homo sapiens, UniProt P08913); assay: In Vitro Affinity (Ki) on Human Receptors: α2A; assay type: binding; conditions: human receptor
T1 sequence (P08913 1-465): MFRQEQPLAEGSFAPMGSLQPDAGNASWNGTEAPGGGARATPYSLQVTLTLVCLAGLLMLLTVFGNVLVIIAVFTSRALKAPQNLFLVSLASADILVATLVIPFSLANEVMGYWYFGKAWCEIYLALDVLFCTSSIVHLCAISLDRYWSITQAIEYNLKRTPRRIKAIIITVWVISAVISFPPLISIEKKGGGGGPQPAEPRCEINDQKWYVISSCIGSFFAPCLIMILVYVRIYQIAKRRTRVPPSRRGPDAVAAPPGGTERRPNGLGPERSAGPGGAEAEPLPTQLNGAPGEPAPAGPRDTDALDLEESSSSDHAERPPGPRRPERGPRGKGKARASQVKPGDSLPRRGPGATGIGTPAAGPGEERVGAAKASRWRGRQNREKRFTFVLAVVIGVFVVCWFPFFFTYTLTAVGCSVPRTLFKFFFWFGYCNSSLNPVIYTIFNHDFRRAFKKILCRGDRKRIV

D1 [2] = target: T2, D1 (Homo sapiens, UniProt P21728); assay: Functional Potency (IC50) on Human Receptors: D1; assay type: biochemical; conditions: human receptor
α2C [3] = target: T3, α2C (Homo sapiens, UniProt P18825); assay: Functional Potency (IC50) on Human Receptors: α2C; assay type: biochemical; conditions: human receptor
T3 sequence (P18825 1-462): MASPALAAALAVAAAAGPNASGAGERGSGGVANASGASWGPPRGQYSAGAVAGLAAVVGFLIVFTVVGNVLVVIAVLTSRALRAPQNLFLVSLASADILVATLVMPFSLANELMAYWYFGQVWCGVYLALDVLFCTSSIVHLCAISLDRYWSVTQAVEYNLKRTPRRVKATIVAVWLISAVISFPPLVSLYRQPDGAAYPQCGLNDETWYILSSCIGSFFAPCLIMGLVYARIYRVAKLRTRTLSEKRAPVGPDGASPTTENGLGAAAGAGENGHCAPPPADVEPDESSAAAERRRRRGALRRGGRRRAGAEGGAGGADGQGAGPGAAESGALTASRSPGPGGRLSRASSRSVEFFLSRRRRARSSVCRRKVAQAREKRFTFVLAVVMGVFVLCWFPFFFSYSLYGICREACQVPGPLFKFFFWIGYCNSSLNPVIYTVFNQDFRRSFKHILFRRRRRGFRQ

hERG [4] = target: T4, hERG (Homo sapiens, UniProt Q12809); assay: Functional Potency (IC50) on Human Receptors: hERG; assay type: biochemical
5HT2A [5] = target: T5, 5HT2A (Homo sapiens, UniProt P28223); assay: Functional Potency (IC50) on Human Receptors: 5HT2A; assay type: biochemical; conditions: human receptor
5HT2C [6] = target: T6, 5HT2C (Homo sapiens, UniProt P28335); assay: Functional Potency (IC50) on Human Receptors: 5HT2C; assay type: biochemical; conditions: human receptor
D2 [7] = target: T7, D2 (Homo sapiens, UniProt P14416); assay: In Vitro Affinity (Ki) on Human Receptors: D2; assay type: binding; conditions: human receptor
α2C [8] = target: T3, α2C; assay: In Vitro Affinity (Ki) on Human Receptors: α2C; assay type: binding; conditions: human receptor
α2A [9] = target: T1, α2A; assay: Functional Potency (IC50) on Human Receptors: α2A; assay type: biochemical; conditions: human receptor
5HT2A [10] = target: T5, 5HT2A; assay: In Vitro Affinity (Ki) on Human Receptors: 5HT2A; assay type: binding; conditions: human receptor
H1 [11] = target: T8, H1 (Homo sapiens, UniProt P35367); assay: Functional Potency (IC50) on Human Receptors: H1; assay type: biochemical; conditions: human receptor
5HT2C [12] = target: T6, 5HT2C; assay: In Vitro Affinity (Ki) on Human Receptors: 5HT2C; assay type: binding; conditions: human receptor
H1 [13] = target: T8, H1; assay: In Vitro Affinity (Ki) on Human Receptors: H1; assay type: binding; conditions: human receptor
5HT1A (native) = target: T9, 5HT1A (native) (Homo sapiens, UniProt P08908); assay: In Vitro Affinity (Ki) on Human Receptors: 5HT1A (native); assay type: binding; conditions: human receptor
T9 construct: 5HT1A (native) 8 nM
T9 sequence (P08908 1-422): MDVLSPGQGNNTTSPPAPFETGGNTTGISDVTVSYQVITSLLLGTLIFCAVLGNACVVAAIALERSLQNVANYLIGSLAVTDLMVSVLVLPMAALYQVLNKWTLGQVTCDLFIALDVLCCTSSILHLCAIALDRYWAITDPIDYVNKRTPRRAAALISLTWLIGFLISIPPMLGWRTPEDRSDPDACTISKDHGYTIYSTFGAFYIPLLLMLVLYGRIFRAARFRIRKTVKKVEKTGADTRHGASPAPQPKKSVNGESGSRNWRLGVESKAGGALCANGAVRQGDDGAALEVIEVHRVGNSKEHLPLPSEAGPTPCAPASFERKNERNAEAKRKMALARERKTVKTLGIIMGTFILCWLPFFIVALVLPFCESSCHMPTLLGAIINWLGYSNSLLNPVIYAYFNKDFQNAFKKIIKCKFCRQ

α1D = target: T10, α1D (Homo sapiens, UniProt P25100); assay: In Vitro Affinity (Ki) on Human Receptors: α1D; assay type: binding; conditions: human receptor
T10 sequence (P25100 1-572): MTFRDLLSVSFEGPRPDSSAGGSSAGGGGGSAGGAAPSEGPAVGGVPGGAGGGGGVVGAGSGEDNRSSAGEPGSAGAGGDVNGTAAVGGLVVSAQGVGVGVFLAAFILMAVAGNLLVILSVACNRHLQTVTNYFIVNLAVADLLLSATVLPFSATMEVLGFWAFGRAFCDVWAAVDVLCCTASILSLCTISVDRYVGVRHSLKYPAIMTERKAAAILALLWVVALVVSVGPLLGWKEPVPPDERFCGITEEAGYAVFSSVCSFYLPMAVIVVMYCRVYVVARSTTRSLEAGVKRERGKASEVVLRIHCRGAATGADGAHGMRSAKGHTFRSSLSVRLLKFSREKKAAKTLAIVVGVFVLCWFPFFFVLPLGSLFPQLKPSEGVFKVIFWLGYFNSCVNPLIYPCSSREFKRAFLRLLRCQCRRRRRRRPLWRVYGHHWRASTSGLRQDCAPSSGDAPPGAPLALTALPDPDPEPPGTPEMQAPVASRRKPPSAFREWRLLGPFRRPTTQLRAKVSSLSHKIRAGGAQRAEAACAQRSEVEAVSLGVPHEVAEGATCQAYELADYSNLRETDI

D3 = D3 (Homo sapiens, UniProt P35462); assay: In Vitro Affinity (Ki) on Human Receptors: D3; assay type: binding; conditions: human receptor
5HT1A = target: T11, 5HT1A (Homo sapiens, UniProt P08908); assay: Functional Potency on Human Receptors: 5HT1A; assay type: biochemical; conditions: human receptor
T11 sequence (P08908 1-422): T9 sequence (P08908 1-422)

D2 [14] = target: T7, D2; assay: Functional Potency (IC50) on Human Receptors: D2; assay type: biochemical; conditions: human receptor
hERG [15] = target: T4, hERG; assay: In Vitro Affinity (Ki) on Human Receptors: hERG; assay type: binding
D1 [16] = target: T2, D1; assay: In Vitro Affinity (Ki) on Human Receptors: D1; assay type: binding; conditions: human receptor
α1A = target: T12, α1A (Homo sapiens, UniProt P35348); assay: In Vitro Affinity (Ki) on Human Receptors: α1A; assay type: binding; conditions: human receptor
T12 sequence (P35348 1-466): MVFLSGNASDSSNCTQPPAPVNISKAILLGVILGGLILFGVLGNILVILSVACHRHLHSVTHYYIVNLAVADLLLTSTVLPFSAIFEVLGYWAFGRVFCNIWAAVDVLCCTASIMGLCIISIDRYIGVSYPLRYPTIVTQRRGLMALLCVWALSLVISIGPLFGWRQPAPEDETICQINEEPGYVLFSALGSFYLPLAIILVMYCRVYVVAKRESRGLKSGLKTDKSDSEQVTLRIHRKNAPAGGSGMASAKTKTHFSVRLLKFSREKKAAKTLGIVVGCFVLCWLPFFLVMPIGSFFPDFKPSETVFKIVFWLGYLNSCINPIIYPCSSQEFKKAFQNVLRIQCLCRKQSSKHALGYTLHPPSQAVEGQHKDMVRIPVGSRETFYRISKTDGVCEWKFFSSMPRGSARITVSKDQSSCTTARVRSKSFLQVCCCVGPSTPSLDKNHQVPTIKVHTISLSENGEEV

T7 sequence (P14416 whole entry): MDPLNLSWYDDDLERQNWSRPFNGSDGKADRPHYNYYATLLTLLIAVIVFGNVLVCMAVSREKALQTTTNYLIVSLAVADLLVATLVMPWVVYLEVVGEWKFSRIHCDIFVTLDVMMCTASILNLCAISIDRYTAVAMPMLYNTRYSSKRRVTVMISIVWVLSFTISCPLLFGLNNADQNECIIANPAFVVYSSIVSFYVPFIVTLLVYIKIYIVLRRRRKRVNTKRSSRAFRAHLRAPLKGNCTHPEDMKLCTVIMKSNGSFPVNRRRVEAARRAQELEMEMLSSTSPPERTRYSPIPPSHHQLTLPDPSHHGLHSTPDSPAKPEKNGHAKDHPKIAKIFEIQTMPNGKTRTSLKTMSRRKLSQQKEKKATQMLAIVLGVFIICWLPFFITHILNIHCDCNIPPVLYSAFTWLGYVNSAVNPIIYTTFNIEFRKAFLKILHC
T6 sequence (P28335 33-458): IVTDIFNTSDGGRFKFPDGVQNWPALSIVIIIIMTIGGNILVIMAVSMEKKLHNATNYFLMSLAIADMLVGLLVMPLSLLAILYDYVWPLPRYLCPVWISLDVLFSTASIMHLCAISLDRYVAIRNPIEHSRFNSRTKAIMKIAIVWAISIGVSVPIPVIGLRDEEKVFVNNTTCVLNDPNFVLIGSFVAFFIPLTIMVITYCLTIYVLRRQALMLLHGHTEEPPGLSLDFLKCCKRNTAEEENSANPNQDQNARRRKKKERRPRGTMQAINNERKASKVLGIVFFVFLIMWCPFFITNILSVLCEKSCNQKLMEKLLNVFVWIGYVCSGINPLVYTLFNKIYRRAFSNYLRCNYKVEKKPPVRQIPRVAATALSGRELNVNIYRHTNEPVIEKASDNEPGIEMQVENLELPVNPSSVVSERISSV
T4 sequence (Q12809 whole entry): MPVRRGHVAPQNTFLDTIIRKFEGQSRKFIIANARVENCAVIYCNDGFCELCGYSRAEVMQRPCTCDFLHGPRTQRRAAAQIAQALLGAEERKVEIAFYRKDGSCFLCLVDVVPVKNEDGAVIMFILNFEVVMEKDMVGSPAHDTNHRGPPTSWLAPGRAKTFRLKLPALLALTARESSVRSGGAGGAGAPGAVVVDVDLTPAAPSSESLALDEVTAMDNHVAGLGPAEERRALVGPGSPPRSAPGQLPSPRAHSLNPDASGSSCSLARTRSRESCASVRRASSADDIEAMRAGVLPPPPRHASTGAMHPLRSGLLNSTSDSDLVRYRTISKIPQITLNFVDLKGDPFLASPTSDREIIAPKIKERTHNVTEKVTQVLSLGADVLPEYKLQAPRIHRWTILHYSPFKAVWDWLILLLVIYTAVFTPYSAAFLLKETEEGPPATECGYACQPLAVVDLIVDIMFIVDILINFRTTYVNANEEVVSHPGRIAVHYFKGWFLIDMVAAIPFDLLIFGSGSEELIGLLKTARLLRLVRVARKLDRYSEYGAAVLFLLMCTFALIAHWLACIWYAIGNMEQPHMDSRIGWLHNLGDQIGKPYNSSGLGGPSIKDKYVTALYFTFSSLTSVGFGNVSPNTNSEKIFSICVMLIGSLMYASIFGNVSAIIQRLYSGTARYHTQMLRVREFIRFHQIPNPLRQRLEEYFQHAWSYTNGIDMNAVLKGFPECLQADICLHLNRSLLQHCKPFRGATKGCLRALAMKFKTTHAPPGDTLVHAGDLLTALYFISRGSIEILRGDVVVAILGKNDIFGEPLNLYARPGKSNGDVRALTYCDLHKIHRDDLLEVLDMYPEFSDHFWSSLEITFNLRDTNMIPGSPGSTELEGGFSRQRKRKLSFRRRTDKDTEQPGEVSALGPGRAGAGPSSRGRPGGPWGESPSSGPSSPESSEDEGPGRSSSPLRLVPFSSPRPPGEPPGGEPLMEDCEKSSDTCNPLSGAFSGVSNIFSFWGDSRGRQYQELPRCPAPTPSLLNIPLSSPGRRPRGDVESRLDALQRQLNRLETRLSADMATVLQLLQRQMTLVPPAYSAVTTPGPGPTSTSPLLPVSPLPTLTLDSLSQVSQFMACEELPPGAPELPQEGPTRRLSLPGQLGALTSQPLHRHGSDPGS
T2 sequence (P21728 whole entry): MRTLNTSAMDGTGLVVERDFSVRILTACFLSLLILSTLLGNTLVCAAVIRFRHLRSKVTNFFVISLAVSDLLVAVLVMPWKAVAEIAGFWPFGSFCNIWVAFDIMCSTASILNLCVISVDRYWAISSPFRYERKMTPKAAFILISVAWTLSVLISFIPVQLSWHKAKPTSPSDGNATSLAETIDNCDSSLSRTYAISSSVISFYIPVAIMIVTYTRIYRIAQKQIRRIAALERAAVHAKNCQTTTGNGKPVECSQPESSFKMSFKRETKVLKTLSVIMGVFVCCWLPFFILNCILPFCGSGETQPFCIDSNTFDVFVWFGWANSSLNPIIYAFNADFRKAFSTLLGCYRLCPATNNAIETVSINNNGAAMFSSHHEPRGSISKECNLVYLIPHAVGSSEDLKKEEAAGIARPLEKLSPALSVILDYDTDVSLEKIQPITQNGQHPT
T5 sequence (P28223 whole entry): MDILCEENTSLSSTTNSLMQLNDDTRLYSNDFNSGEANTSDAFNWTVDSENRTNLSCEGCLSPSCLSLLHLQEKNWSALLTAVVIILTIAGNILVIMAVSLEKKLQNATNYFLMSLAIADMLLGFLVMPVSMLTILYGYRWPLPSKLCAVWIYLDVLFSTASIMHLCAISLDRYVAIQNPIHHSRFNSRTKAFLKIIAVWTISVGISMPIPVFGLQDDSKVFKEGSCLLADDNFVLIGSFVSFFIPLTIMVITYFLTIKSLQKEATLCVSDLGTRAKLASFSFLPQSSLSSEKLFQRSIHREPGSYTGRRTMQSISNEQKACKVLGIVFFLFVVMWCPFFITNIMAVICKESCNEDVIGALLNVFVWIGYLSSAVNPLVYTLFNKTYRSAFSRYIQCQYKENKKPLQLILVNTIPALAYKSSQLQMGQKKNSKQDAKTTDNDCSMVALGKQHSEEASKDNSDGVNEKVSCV
T8 sequence (P35367 whole entry): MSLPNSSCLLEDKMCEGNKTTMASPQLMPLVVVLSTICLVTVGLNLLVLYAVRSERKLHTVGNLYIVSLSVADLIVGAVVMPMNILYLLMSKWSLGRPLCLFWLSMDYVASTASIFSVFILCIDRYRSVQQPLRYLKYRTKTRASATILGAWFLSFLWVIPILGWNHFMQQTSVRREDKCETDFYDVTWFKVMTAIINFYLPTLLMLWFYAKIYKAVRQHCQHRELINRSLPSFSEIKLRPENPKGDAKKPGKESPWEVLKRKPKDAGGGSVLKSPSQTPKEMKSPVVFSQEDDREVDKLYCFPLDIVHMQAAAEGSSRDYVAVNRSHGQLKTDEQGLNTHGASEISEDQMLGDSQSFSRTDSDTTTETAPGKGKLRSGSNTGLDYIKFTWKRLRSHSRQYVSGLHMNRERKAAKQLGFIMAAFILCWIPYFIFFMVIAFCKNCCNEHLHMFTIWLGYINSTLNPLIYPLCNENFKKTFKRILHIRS
Sequence of D3 (P35462 whole entry): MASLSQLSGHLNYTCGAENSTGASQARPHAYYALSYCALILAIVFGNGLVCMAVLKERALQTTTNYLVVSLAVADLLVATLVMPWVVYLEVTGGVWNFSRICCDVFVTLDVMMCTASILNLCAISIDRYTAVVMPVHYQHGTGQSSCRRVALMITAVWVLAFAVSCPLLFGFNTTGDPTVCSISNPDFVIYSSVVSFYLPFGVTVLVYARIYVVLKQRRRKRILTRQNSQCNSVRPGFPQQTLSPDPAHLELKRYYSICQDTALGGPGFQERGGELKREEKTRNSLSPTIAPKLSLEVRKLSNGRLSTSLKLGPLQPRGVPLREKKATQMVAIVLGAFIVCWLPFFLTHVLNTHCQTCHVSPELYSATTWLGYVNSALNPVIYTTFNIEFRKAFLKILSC

## C[C@@]1(O)CC2CC1[C@@H]1C(=O)N(CC3CCCC[C@H]3CN3CCN(c4nsc5ccccc45)CC3)C(=O)[C@H]21 (stereo in doubt) [(3aS,4S,5R,7S,7aR)-2-[((1R,2R)-2-{[4-(1,2-benzisothiazol-3-yl)piperazin-1-yl]methyl}cyclohexyl)methyl]-5-hydroxy-5-methylhexahydro-1H-4,7-methanoisoindole-1,3-dione]
α2A [1]
  Ki: 59 nM
D1 [2]
  IC50: 1650 nM
α2C [3]
  IC50: 160 nM
hERG [4]
  IC50: 4000 nM
5HT2A [5]
  IC50: 32 nM
5HT2C [6]
  IC50: 1710 nM
D2 [7]
  Ki: 1 nM
α2C [8]
  Ki: 9 nM
α2A [9]
  IC50: 1220 nM
5HT2A [10]
  Ki: < 10 nM
H1 [11]
  IC50: 3100 nM
5HT2C [12]
  Ki: 16 nM
H1 [13]
  Ki: 371 nM
5HT1A (native)
  Ki: 8 nM
α1D
  Ki: 82 nM
D3
  Ki: 2 nM
5HT1A
  EC50: 98 nM
5HT1A; max response
  Functional Potency 5HT1A % max: 77%
D2 [14]
  IC50: 25 nM
hERG [15]
  Ki: 644 nM
D1 [16]
  Ki: 457 nM
α1A
  Ki: 31 nM

Source: US8252799B2, “Hexahydro-1H-4,7-methanoisoindole-1,3-dione compounds” (Merck Sharp & Dohme Corp., priority 2007, dated 2012)
